{"source": "patent US7205295B2", "about": "“Benzoxazin-3-ones and derivatives thereof as therapeutic agents” (Warner-Lambert Company LLC, priority 2002, dated 2007)", "data": [{"target": "T1, PI3Kγ (p101/p110γ protein) (Homo sapiens, UniProt P48736)", "T1 construct": "HA; made in house; host or cells: Spodoptera frugiperda (Sf9) cells, baculovirus co-infection", "T1 sequence (P48736 whole entry, species assumed)": "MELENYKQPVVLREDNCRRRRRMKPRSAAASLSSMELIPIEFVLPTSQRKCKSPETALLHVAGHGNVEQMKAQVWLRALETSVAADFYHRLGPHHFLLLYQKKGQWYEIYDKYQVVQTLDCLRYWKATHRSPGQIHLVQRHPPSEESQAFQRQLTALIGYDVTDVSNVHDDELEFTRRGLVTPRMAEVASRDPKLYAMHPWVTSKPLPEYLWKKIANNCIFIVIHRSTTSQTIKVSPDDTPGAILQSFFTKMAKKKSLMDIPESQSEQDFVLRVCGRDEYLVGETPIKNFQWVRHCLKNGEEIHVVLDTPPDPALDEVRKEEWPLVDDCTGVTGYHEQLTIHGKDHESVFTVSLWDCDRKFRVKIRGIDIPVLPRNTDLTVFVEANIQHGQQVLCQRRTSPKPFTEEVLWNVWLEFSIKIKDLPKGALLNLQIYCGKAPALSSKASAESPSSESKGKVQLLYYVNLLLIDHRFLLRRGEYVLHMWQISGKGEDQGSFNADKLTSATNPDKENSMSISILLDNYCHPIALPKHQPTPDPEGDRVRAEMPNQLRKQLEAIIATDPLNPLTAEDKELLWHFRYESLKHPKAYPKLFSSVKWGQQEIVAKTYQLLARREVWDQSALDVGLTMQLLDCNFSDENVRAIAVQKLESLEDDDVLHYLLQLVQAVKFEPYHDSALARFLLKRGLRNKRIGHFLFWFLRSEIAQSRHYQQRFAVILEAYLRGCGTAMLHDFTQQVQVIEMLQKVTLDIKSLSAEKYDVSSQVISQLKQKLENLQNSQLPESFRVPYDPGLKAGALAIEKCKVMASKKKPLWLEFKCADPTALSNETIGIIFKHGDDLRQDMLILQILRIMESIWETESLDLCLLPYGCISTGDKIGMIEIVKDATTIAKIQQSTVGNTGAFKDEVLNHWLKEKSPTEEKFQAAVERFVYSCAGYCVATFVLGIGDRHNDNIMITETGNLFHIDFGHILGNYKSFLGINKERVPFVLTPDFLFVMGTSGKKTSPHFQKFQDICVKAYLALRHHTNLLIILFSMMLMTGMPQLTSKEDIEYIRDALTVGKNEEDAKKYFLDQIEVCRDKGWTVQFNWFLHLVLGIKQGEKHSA", "T1 sequence (Q8WYR1 whole entry partner, species assumed)": "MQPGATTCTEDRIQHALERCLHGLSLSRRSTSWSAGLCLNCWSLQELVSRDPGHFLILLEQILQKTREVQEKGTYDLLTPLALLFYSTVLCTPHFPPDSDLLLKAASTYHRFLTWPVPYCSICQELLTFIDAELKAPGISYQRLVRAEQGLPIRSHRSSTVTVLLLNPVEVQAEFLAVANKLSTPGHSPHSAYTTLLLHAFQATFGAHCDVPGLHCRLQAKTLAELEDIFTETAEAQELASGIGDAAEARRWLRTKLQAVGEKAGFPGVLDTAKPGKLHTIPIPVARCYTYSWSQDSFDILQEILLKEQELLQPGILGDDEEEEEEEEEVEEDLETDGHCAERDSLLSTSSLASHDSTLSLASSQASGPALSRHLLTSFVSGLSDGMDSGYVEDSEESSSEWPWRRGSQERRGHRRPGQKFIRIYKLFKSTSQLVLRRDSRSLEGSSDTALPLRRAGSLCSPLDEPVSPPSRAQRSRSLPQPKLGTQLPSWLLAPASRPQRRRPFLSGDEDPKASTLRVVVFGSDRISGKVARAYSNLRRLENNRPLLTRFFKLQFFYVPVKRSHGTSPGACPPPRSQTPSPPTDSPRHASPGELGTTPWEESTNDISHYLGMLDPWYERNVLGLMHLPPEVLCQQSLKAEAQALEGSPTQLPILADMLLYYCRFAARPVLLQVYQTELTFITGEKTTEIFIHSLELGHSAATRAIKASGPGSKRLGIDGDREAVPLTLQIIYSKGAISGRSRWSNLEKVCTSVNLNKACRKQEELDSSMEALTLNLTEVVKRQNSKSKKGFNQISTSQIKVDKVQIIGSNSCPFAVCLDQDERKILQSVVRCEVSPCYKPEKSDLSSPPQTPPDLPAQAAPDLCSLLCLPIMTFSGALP", "assay": "PI3Kγ In Vitro Kinase Assay", "assay_type": "biochemical", "conditions": "purified recombinant p101/p110γ with G protein β1/γ2 subunits; 20 μM ATP, 25 μM PIP2; 20 minutes at room temperature", "outline": "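Reactions ran 20 min at room temperature, pairing lipid micelles (25 μM PIP2, 300 μM PE, 0.02% Na-cholate, 10 mM MgCl2) with 20 μM ATP including [γ-32P]ATP. The enzyme was recombinant p101/p110γ (2.7 nM) with G protein β1/γ2 (57.7 nM). [32P]PIP3 product was stopped with H3PO4, filtered and scintillation counted.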", "units": {"IC50": "nM"}, "values": [{"compound": "CC(C)(C)OC(=O)N1CCN(Cc2ccc(CN3C(=O)COc4ccc(C=C5SC(=O)NC5=O)cc43)cc2)CC1", "note": "[Example 75, 4-{4-[6-(2,4-dioxo-thiazolidin-5-ylidenemethyl)-3-oxo-2,3-dihydro-1,4-benzoxazin-4-ylmethyl]-benzyl}-piperazine-1-carboxylic acid tert-butyl ester]", "IC50": 155}, {"compound": "O=C1NC(=O)C(=Cc2cc(F)c3c(c2)N(Cc2ccc(CN4CCCCC4)cc2)C(=O)CO3)S1", "note": "[Example 76, 5-[8-Fluoro-3-oxo-4-(4-piperidin-1-ylmethyl-benzyl)-3,4-dihydro-2H-1,4-benzoxazin-6-ylmethylene]-thiazolidine-2,4-dione]", "IC50": 6}, {"compound": "CCCCN1CCN(Cc2ccc(CN3C(=O)COc4ccc(C=C5SC(=S)NC5=O)cc43)cc2)CC1", "note": "[Example 77, 4-[4-(4-Butyl-piperazin-1-ylmethyl)-benzyl]-6-(4-oxo-2-thioxo-thiazolidin-5-ylidenemethyl)-4H-1,4-benzoxazin-3-one]", "IC50": 21}, {"compound": "CCN(CC)Cc1ccc(CN2C(=O)COc3c(Cl)cc(C=C4SC(=S)NC4=O)cc32)cc1", "note": "[Example 78, 8-Chloro-4-(4-diethylaminomethyl-benzyl)-6-(4-oxo-2-thioxo-thiazolidin-5-ylidenemethyl)-4H-1,4-benzoxazin-3-one]", "IC50": 57}, {"compound": "O=C1NC(=S)SC1=Cc1cc(Cl)c2c(c1)N(Cc1ccc(CN3CCCCC3)cc1)C(=O)CO2", "note": "[Example 79, 8-Chloro-6-(4-oxo-2-thioxo-thiazolidin-5-ylidenemethyl)-4-(4-piperidin-1-ylmethyl-benzyl)-4H-1,4-benzoxazin-3-one; compound with Toluene-4-sulfonic acid]", "IC50": 20}, {"compound": "O=C1NC(=S)SC1=Cc1cc(Cl)c2c(c1)N(Cc1ccc(CN3CCOCC3)cc1)C(=O)CO2", "note": "[Example 80, 8-Chloro-4-(4-morpholin-4-ylmethyl-benzyl)-6-(4-oxo-2-thioxo-thiazolidin-5-ylidenemethyl)-4H-1,4-benzoxazin-3-one]", "IC50": 17}, {"compound": "O=C1NC(=S)SC1=Cc1ccc2c(c1)N(Cc1ccccc1)C(=O)CS2", "note": "[Example 81, 4-Benzyl-6-(4-oxo-2-thioxo-thiazolidin-5-ylidenemethyl)-4H-1,4-benzothiazin-3-one]", "IC50": 29}, {"compound": "CC(C)(C)c1cc(CN2C(=O)CSc3ccc(C=C4SC(=S)NC4=O)cc32)cc(C(C)(C)C)c1", "note": "[Example 82, 4-(3,5-Di-tert-butyl-benzyl)-6-(4-oxo-2-thioxo-thiazolidin-5-ylidenemethyl)-4H-1,4-benzothiazin-3-one]", "IC50": 3740}, {"compound": "O=C1CSc2ccc(C=C3SC(=S)NC3=O)cc2N1", "note": "[Example 83, 6-(4-Oxo-2-thioxo-thiazolidin-5-ylidenemethyl)-4H-1,4-benzothiazin-3-one]", "IC50": 260}, {"compound": "O=C1COc2ccc(C=C3OC(=S)NC3=O)cc2N1", "note": "[Example 84, 6-(4-Oxo-2-thioxo-oxazolidin-5-ylidenemethyl)-4H-benzo[1,4]oxazin-3-one]", "IC50": 60}, {"compound": "CC(C)(C)c1cc(CN2C(=O)COc3ccc(C=C4SC(=O)NC4=O)cc32)cc(C(C)(C)C)c1", "note": "[Example 85, 5-[4-(3,5-Di-tert-butyl-benzyl)-3-oxo-3,4-dihydro-2H-1,4-benzoxazin-6-ylmethylene]-thiazolidine-2,4-dione]", "IC50": 21}, {"compound": "O=C1CC(=Cc2ccc3c(c2)NC(=O)CO3)C(=O)N1", "note": "[Example 86, 3-(3-Oxo-3,4-dihydro-2H-benzo[1,4]oxazin-6-ylmethylene)-pyrrolidine-2,5-dione]", "IC50": 12300}, {"compound": "O=C1COc2ccc(C=C3NC(=O)NC3=O)cc2N1", "note": "[Example 87, 5-(3-Oxo-3,4-dihydro-2H-benzo[1,4]oxazin-6-ylmethylene)-imidazolidine-2,4-dione]", "IC50": 16100}, {"compound": "Cc1ccc(CN2C(=O)COc3ccc(C=C4SC(=S)NC4=O)cc32)c(C)c1", "note": "[Example 100, 4-(2,4-Dimethyl-benzyl)-6-(4-oxo-2-thioxo-thiazolidin-5-ylidenemethyl)-4H-1,4-benzoxazin-3-one]", "IC50": 5}, {"compound": "Cc1cccc(CCN2C(=O)COc3ccc(C=C4SC(=S)NC4=O)cc32)c1", "note": "[Example 101, 6-(4-Oxo-2-thioxo-thiazolidin-5-ylidenmethyl)-4-[2-m-tolyl-ethyl]-4H-benzo[1,4]oxazin-3-one]", "IC50": 5}, {"compound": "C[C@@H]1Oc2ccc(C=C3SC(=S)NC3=O)cc2N(CCc2ccc(Cl)c(Cl)c2)C1=O", "note": "[Example 109, (S)-4-[2-(3,4-Dichloro-phenyl)-ethyl]-2-methyl-6-(4-oxo-2-thioxo-thiazolidin-5-ylidenmethyl)-4H-benzo[1,4]oxazin-3-one]", "IC50": 330}, {"compound": "O=C1NC(=S)SC1=Cc1cc(Cl)c2c(c1)N(CCc1ccc(Cl)c(Cl)c1)C(=O)CO2", "note": "[Example 110, 8-Chloro-4-[2-(3,4-dichloro-phenyl)-ethyl]-6-(4-oxo-2-thioxo-thiazolidin-5-ylidenmethyl)-4H-benzo[1,4]oxazin-3-one]", "IC50": 55}, {"compound": "O=C1NC(=S)SC1=Cc1cc(F)c2c(c1)N(CCc1ccc(Cl)c(Cl)c1)C(=O)CO2", "note": "[Example 111, 4-[2-(3,4-dichloro-phenyl)-ethyl]-8-fluoro-6-(4-oxo-2-thioxo-thiazolidin-5-ylidenmethyl)-4H-benzo[1,4]oxazin-3-one]", "IC50": 14}, {"compound": "Cc1cc(C=C2SC(=S)NC2=O)cc2c1OCC(=O)N2CCc1ccc(Cl)c(Cl)c1", "note": "[Example 112, 4-[2-(3,4-dichloro-phenyl)-ethyl]-8-methyl-6-(4-oxo-2-thioxo-thiazolidin-5-ylidenmethyl)-4H-benzo[1,4]oxazin-3-one]", "IC50": 22}, {"compound": "O=C1NC(=S)SC1=Cc1ccc2c(c1)N(CCc1cc(C(F)(F)F)cc(C(F)(F)F)c1)C(=O)CO2", "note": "[Example 113, 4-[2-(Bis-trifluromethyl-phenyl)-ethyl]-6-(4-oxo-2-thioxo-thiazolidin-5-ylidenmethyl)-4H-benzo[1,4]oxazin-3-one]", "IC50": 14}, {"compound": "Cc1cc(CN2C(=O)COc3ccc(C=C4SC(=S)NC4=O)cc32)cc(-c2ccoc2)c1", "note": "[Example 115, 4-(3-Furan-3-yl-5-methyl-benzyl)-6-(4-oxo-2-thioxo-thiazolidin-5-ylidenemethyl)-4H-benzo[1,4]oxazin-3-one]", "IC50": 15}, {"compound": "Cc1cc(CN2C(=O)COc3ccc(C=C4SC(=S)NC4=O)cc32)cc(-c2ccsc2)c1", "note": "[Example 116, 4-(3-Methyl-5-thiophene-3-yl-benzyl)-6-(4-oxo-2-thioxo-thiazolidin-5-ylidenemethyl)-4H-benzo[1,4]oxazin-3-one]", "IC50": 24}, {"compound": "Cc1cc(CN2C(=O)COc3ccc(C=C4SC(=S)NC4=O)cc32)cc(-c2c(C)noc2C)c1", "note": "[Example 117, 4-[3-(3,5-Dimethyl-isoxazol-4-yl)-5-methyl-benzyl]-6-(4-oxo-2-thioxo-thiazolidin-5-ylidenemethyl)-4H-benzo[1,4]oxazin-3-one]", "IC50": 40}, {"compound": "COC(=O)c1cc(C)cc(CN2C(=O)COc3ccc(C=C4SC(=S)NC4=O)cc32)c1", "note": "[Example 118]", "IC50": 23}, {"compound": "Cc1cc(CN2C(=O)COc3ccc(C=C4SC(=S)NC4=O)cc32)cc(-c2nccs2)c1", "note": "[Example 119, 4-(3-Methyl-5-thiazol-2-yl-benzyl)-6-(4-oxo-2-thioxo-thiazolidin-5-ylidenemethyl)-4H-benzo[1,4]oxzain-3-one]", "IC50": 19}, {"compound": "Cc1cc(C#N)cc(CN2C(=O)COc3ccc(C=C4SC(=S)NC4=O)cc32)c1", "note": "[Example 120]", "IC50": 30}, {"compound": "Cc1cc(CN2C(=O)COc3ccc(C=C4SC(=S)NC4=O)cc32)cc(-c2cnccn2)c1", "note": "[Example 121, 4-(3-Methyl-5-pyrazin-2-yl-benzyl)-6-(4-oxo-2-thioxo-thiazolidin-5-ylidenemethyl)-4H-benzo[1,4]oxazin-3-one]", "IC50": 67}, {"compound": "COc1ccc(CCCN2C(=O)COc3ccc(C=C4SC(=S)NC4=O)cc32)cc1", "note": "[Example 122, 4-[3-(4-Methoxy-phenyl)-propyl]-6-(4-oxo-2-thioxo-thiazolidin-5-ylidenemethyl)-4H-benzo[1,4]oxazin-3-one]", "IC50": 5}, {"compound": "COc1ccc(CCCN2C(=O)COc3ccc(C=C4SC(=O)NC4=O)cc32)cc1", "note": "[Example 123, 5-{4-[3-(4-Methoxy-phenyl)-propyl]-3-oxo-3,4-dihydro-2H-benzo[1,4]oxazin-6-ylmethylene}-thiazolidine-2,4-dione]", "IC50": 7}, {"compound": "COc1cc(CCCN2C(=O)COc3ccc(C=C4SC(=S)NC4=O)cc32)cc(OC)c1OC", "note": "[Example 124, 6-(4-Oxo-2-thioxo-thiazolidin-5-ylidenemethyl)-4-[3-(3,4,5-trimethoxy-phenyl)-propyl]-4H-benzo[1,4]oxazin-3-one]", "IC50": 15}, {"compound": "CC(=O)Oc1c(C)cc(CN2C(=O)COc3ccc(C=C4SC(=S)NC4=O)cc32)cc1C", "note": "[Example 126, Acetic acid 2,6-dimethyl-4-{3-[3-oxo-6-(4-oxo-2-thioxo-thiazolidin-5-ylidenemethyl)-2,3-dihydro-benzo[1,4]oxazin-4-yl]-methyl}-phenyl ester]", "IC50": 10}, {"compound": "O=C1NC(=S)SC1=Cc1ccc2c(c1)N(CCCc1cccc(Cl)c1Cl)C(=O)CO2", "note": "[Example 127, 4-[3-(2,3-Dichloro-phenyl)-propyl]-6-(4-oxo-2-thioxo-thiazolidin-5-ylidenemethyl)-4H-benzo[1,4]oxazin-3-one]", "IC50": 43}, {"compound": "Cn1nc(C(C)(C)C)cc1CN1C(=O)COc2ccc(C=C3SC(=S)NC3=O)cc21", "note": "[Example 128, 4-(5-tert-Butyl-2-methyl-2H-pyrazol-3-ylmethyl)-6-(4-oxo-2-thioxo-thiazolidin-5-ylidenemethyl)-4H-benzo[1,4]oxazin-3-one]", "IC50": 180}, {"compound": "COc1ccc(CCN2C(=O)COc3ccc(C=C4SC(=S)NC4=O)cc32)cc1", "note": "[Example 136, 4-[2-(4-Methoxy-phenyl)-ethyl]-6-(4-oxo-2-thioxo-thiazolidin-5-ylidenemethyl)-4H-1,4-benzoxazin-3-one]", "IC50": 7}, {"compound": "Cc1ccc(CN2C(=O)COc3ccc(C=C4SC(=S)NC4=O)cc32)cc1", "note": "[Example 140, 4-(4-Methyl-benzyl)-6-(4-oxo-2-thioxo-thiazolidin-5-ylidenemethyl)-4H-benzo[1,4]oxazin-3-one]", "IC50": 29}]}]}
